Reference: patent publication US20230028658A1, “EXPANDED DOSAGE REGIMENS FOR INTEGRIN INHIBITORS” (Pliant Therapeutics, Inc., priority 2021, published 2023)
Where two headings read alike, the source gives them in different places.

Experiments:
[1] = Safety at the higher doses of Examples B14 and B15; type: in vivo, human; details: healthy participants, higher doses of Examples B14 and B15 (80-640 mg)
Protocol: This study was a single-center, randomized, double-blind, ascending dose, placebo-controlled study in healthy participants. Each cohort included 10 participants (8 active, 2 placebo). Study participants received single ascending doses (SAD) of Compound 5 of 120, 160, 240, 320, 480, and 640 mg and multiple ascending doses (MAD) of Compound 5 of 80, 120, 160, 240, and 320 mg. Two cohorts of participants at 160 mg were studied in the MAD phase of the study.
This study was designed as a randomized, double-blind, placebo-controlled study in 48 healthy participants conducted in 2 parts. Part 1 has completed clinical conduct, and Part 2 is ongoing. In Part 1, 24 participants were randomized 1:1:1 to receive Compound 5 80 mg QD, Compound 5 160 mg QD, or placebo QD. A safety review committee reviewed the safety and PK data from Part 1 and recommended doses for Part 2. […] BALF samples were assessed for TGF-β receptor kinase activity (pSMAD2/SMAD2) in pelleted cells (primarily alveolar macrophages) and additional cell material was used to measure TGF-β signaling pathway-related gene expression levels. […] Safety was monitored via open-ended AE inquiry and clinical chemistry, hematology, vital sign, and 12-lead ECG parameters.

[2] = Plasma PK, Example B15 Part 1; type: in vivo; details: human, initial results; for Cmax / AUC(0-t): Day 7, geometric mean; for AUC(0-t): read-out: AUC0-24, ng × h/mL; for Tmax: Day 7, median
Protocol: This study was designed as a randomized, double-blind, placebo-controlled study in 48 healthy participants conducted in 2 parts. Part 1 has completed clinical conduct, and Part 2 is ongoing. In Part 1, 24 participants were randomized 1:1:1 to receive Compound 5 80 mg QD, Compound 5 160 mg QD, or placebo QD. A safety review committee reviewed the safety and PK data from Part 1 and recommended doses for Part 2. In Part 2, 24 participants were randomized 1:1:1 to receive Compound 5 320 mg QD (Compound 5 in the morning and matched placebo in the afternoon), Compound 5 160 mg twice daily (BID), or placebo BID. In both parts, samples of BALF were collected from the middle lobe or lingula via bronchoscopy prior to dosing (Day −1) and at 6 and 24 hours post morning dose on Day 7. BALF samples were assessed for TGF-β receptor kinase activity (pSMAD2/SMAD2) in pelleted cells (primarily alveolar macrophages) and additional cell material was used to measure TGF-β signaling pathway-related gene expression levels. Plasma samples were collected to measure Compound 5 concentrations and determine protein binding. Safety was monitored via open-ended AE inquiry and clinical chemistry, hematology, vital sign, and 12-lead ECG parameters.

Cmax ([2]; 80 mg QD): 1510 ng/mL
AUC(0-t) ([2]; 80 mg QD): 25400 ng·h/mL
Tmax ([2]; 80 mg QD): 6 h
Cmax ([2]; 160 mg QD): 2990 ng/mL
AUC(0-t) ([2]; 160 mg QD): 49900 ng·h/mL
Tmax ([2]; 160 mg QD): 5 h
Structure (SMILES): COCCN(CCCCc1ccc2c(n1)NCCC2)CC[C@H](Nc1ncnc2ccccc12)C(=O)O [Compound 5, (S)-4-((2-methoxyethyl) (4-(5,6,7,8-tetrahydro-1,8-naphthyridin-2-yl)butyl)amino)-2-(quinazolin-4-ylamino) butanoic acid]
adverse effects [1]: no significant adverse effects
